ChEMBL document CHEMBL3407483, “Novel 3-nitrotriazole-based amides and carbinols as bifunctional antichagasic agents” (J Med Chem, 2015)

tested on: Trypanosoma brucei rhodesiense; test: Antitrypanosomal activity against trypomastigote stage of Trypanosoma brucei rhodesiense STIB 900 assessed as parasite growth inhibition after 72 hrs by Alamar Blue assay; type: functional, organism-based; settings: STIB 900, 72 h

Row | SMILES | IC50 [µM]
1 | CC1(c2ccc(-n3ccnc3)cc2)CO1 (configuration not stated) | 76.2
2 | CC(O)(Cn1cnc([N+](=O)[O-])n1)c1ccc(-c2ccccc2)cc1 (configuration not stated) | 1.09
3 | O=C(Cn1ccnc1[N+](=O)[O-])Nc1nc(-c2ccc(F)c(F)c2)cs1 | 10
4 | CC(O)(Cn1cnc([N+](=O)[O-])n1)c1ccc(-n2ccnc2)cc1 (configuration not stated) | 1.84
5 | O=[N+]([O-])c1ncn(CC(O)(Cn2cncn2)c2ccc(F)cc2F)n1 (configuration not stated) | 26.6
6 | O=C(Cn1cnc([N+](=O)[O-])n1)c1ccc(F)cc1F | 34.1
7 | Cc1nc(-c2cccc(NC(=O)Cn3cnc([N+](=O)[O-])n3)c2)cs1 | 7.04
8 | CC(O)(Cn1cncn1)c1ccc(-n2ccnc2)cc1 (configuration not stated) | 153
9 | CC(O)(Cn1cncn1)c1ccc(-c2ccccc2)cc1 (configuration not stated) | 65.6
10 | Fc1ccc(C2(Cn3cncn3)Cn3ccnc3O2)c(F)c1 (configuration not stated) | 221

tested on: Trypanosoma brucei; test: Activity of his-tagged recombinant Trypanosoma brucei type-1 nitroreductase assessed as oxidized NADH level per mg of protein after 5 mins by absorption spectrum analysis; settings: not given

Row | SMILES | Activity [nmol/min]
11 | O=C(Cn1ccnc1[N+](=O)[O-])NCc1ccccc1 [BENZNIDAZOLE] | 1540
12 | CC(O)(Cn1cnc([N+](=O)[O-])n1)c1ccc(-n2ccnc2)cc1 (configuration not stated) | 3460
13 | O=[N+]([O-])c1ncn(CC(O)(Cn2cncn2)c2ccc(F)cc2F)n1 (configuration not stated) | 3060

tested on: Trypanosoma cruzi; test: Antichagasic activity against trypomastigote stage of Trypanosoma cruzi Brazil infected in Balb/c mouse assessed as reduction of parasite index at 15 mg/kg/day, ip measured after 10 days by luciferase reporter gene assay relative to control; type: functional; set-up: scale not given: the % may be the effect or the level left; settings: route intraperitoneal

Row | SMILES | Activity [%]
14 | O=C(Cn1ccnc1[N+](=O)[O-])NCc1ccccc1 [BENZNIDAZOLE] | <4
15 | O=[N+]([O-])c1ncn(CC(O)(Cn2cncn2)c2ccc(F)cc2F)n1 (configuration not stated) | <4

tested on: Trypanosoma cruzi; test: Antitrypanosomal activity against amastigote stage of Trypanosoma cruzi Tulahuen C4 infected in rat L6 cells assessed as parasite growth inhibition after 96 hrs by colorimetric analysis; type: functional, organism-based; settings: Tulahuen C4, L6, 96 h

Row | SMILES | IC50 [µM]
16 | OC(Cn1cncn1)(Cn1cncn1)c1ccc(F)cc1F [FLUCONAZOLE] | 9.97
17 | CC1(c2ccc(-n3ccnc3)cc2)CO1 (configuration not stated) | 188
18 | CC(O)(Cn1cnc([N+](=O)[O-])n1)c1ccc(-c2ccccc2)cc1 (configuration not stated) | 0.102
19 | O=C(Cn1ccnc1[N+](=O)[O-])Nc1nc(-c2ccc(F)c(F)c2)cs1 | 3.99
20 | CC(O)(Cn1cnc([N+](=O)[O-])n1)c1ccc(-n2ccnc2)cc1 (configuration not stated) | 3.29
21 | O=[N+]([O-])c1ncn(CC(O)(Cn2cncn2)c2ccc(F)cc2F)n1 (configuration not stated) | 1.17
22 | O=C(Cn1cnc([N+](=O)[O-])n1)c1ccc(F)cc1F | 1.19
23 | Cc1nc(-c2cccc(NC(=O)Cn3cnc([N+](=O)[O-])n3)c2)cs1 | 0.552
24 | CC(O)(Cn1cncn1)c1ccc(-n2ccnc2)cc1 (configuration not stated) | 157
25 | CC(O)(Cn1cncn1)c1ccc(-c2ccccc2)cc1 (configuration not stated) | 0.706
26 | Fc1ccc(C2(Cn3cncn3)Cn3ccnc3O2)c(F)c1 (configuration not stated) | 5.79

tested on: Trypanosoma cruzi; test: Antichagasic activity against trypomastigote stage of Trypanosoma cruzi Brazil infected in Balb/c mouse assessed as parasite index at 15 mg/kg/day, ip measured after 5 days by luciferase reporter gene assay; type: functional; settings: route intraperitoneal

Row | SMILES | Activity
27 | O=C(Cn1ccnc1[N+](=O)[O-])NCc1ccccc1 [BENZNIDAZOLE] | 13.38
28 | O=[N+]([O-])c1ncn(CC(O)(Cn2cncn2)c2ccc(F)cc2F)n1 (configuration not stated) | 24.9

target: Sterol 14-alpha demethylase (Trypanosoma cruzi (strain CL Brener), UniProt Q7Z1V1); test: Binding affinity to recombinant full-length Trypanosoma cruzi CYP51 by UV-spectrophotometric analysis; settings: read-out: Kd(app)
Sequence (Q7Z1V1 whole entry): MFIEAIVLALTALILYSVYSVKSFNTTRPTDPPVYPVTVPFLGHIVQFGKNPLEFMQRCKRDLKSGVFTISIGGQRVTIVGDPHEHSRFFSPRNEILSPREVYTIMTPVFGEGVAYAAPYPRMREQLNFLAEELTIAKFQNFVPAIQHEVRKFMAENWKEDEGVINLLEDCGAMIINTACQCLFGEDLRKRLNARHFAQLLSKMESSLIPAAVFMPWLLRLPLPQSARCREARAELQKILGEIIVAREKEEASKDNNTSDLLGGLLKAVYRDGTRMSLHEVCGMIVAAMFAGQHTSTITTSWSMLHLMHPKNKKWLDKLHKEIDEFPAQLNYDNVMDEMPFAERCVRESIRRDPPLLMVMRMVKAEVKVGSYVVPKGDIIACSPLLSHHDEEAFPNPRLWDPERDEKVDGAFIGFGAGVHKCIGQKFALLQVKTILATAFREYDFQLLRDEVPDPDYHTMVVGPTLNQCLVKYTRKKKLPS

Row | SMILES | Kd [µM]
29 | O=[N+]([O-])c1ncn(CC(O)(Cn2cncn2)c2ccc(F)cc2F)n1 (configuration not stated) | 0.606

tested on: Mus musculus; test: Toxicity in Balb/c mouse at 15 mg/kg/day, ip measured after 5 to 10 days; type: organism-based; set-up: route intraperitoneal; settings: in vivo

Row | SMILES | Activity
30 | O=C(Cn1ccnc1[N+](=O)[O-])NCc1ccccc1 [BENZNIDAZOLE] | Non-toxic
31 | O=[N+]([O-])c1ncn(CC(O)(Cn2cncn2)c2ccc(F)cc2F)n1 (configuration not stated) | Non-toxic

tested on: L6; test: Cytotoxicity against rat L6 cells assessed as growth inhibition after 72 hrs by Alamar Blue assay; type: cell-based; settings: L6, 72 h

Row | SMILES | IC50 [µM]
32 | OC(Cn1cncn1)(Cn1cncn1)c1ccc(F)cc1F [FLUCONAZOLE] | > 294
33 | CC1(c2ccc(-n3ccnc3)cc2)CO1 (configuration not stated) | 277
34 | CC(O)(Cn1cnc([N+](=O)[O-])n1)c1ccc(-c2ccccc2)cc1 (configuration not stated) | 86
35 | O=C(Cn1ccnc1[N+](=O)[O-])Nc1nc(-c2ccc(F)c(F)c2)cs1 | 62.1
36 | CC(O)(Cn1cnc([N+](=O)[O-])n1)c1ccc(-n2ccnc2)cc1 (configuration not stated) | > 318
37 | O=[N+]([O-])c1ncn(CC(O)(Cn2cncn2)c2ccc(F)cc2F)n1 (configuration not stated) | 258
38 | O=C(Cn1cnc([N+](=O)[O-])n1)c1ccc(F)cc1F | 246
39 | Cc1nc(-c2cccc(NC(=O)Cn3cnc([N+](=O)[O-])n3)c2)cs1 | 67.3
40 | CC(O)(Cn1cncn1)c1ccc(-n2ccnc2)cc1 (configuration not stated) | > 372
41 | CC(O)(Cn1cncn1)c1ccc(-c2ccccc2)cc1 (configuration not stated) | 114
42 | Fc1ccc(C2(Cn3cncn3)Cn3ccnc3O2)c(F)c1 (configuration not stated) | > 286

tested on: Trypanosoma cruzi; test: Activity of his-tagged recombinant Trypanosoma cruzi type-1 nitroreductase assessed as oxidized NADH level per mg of protein after 5 mins by absorption spectrum analysis; settings: not given

Row | SMILES | Activity [nmol/min]
43 | O=C(Cn1ccnc1[N+](=O)[O-])NCc1ccccc1 [BENZNIDAZOLE] | 680
44 | CC(O)(Cn1cnc([N+](=O)[O-])n1)c1ccc(-n2ccnc2)cc1 (configuration not stated) | 1070
45 | O=[N+]([O-])c1ncn(CC(O)(Cn2cncn2)c2ccc(F)cc2F)n1 (configuration not stated) | 1180

tested on: not listed separately; test: Selectivity index, ratio of IC50 for rat L6 cells to IC50 for trypomastigote stage of Trypanosoma brucei rhodesiense STIB 900; type: toxicity, cell-based; settings: read-out: Ratio IC50

Row | SMILES | selectivity ratio
46 | CC(O)(Cn1cnc([N+](=O)[O-])n1)c1ccc(-c2ccccc2)cc1 (configuration not stated) | 78.9
47 | CC(O)(Cn1cnc([N+](=O)[O-])n1)c1ccc(-n2ccnc2)cc1 (configuration not stated) | > 173
48 | Cc1nc(-c2cccc(NC(=O)Cn3cnc([N+](=O)[O-])n3)c2)cs1 | 10
49 | CC(O)(Cn1cncn1)c1ccc(-c2ccccc2)cc1 (configuration not stated) | 1.74

tested on: not listed separately; test: Selectivity index, ratio of IC50 for rat L6 cells to IC50 for amastigote stage of Trypanosoma cruzi Tulahuen C4 infected in rat L6 cells; type: toxicity, cell-based; settings: read-out: Ratio IC50

Row | SMILES | selectivity ratio
50 | CC(O)(Cn1cnc([N+](=O)[O-])n1)c1ccc(-c2ccccc2)cc1 (configuration not stated) | 844
51 | O=C(Cn1ccnc1[N+](=O)[O-])Nc1nc(-c2ccc(F)c(F)c2)cs1 | 15.6
52 | CC(O)(Cn1cnc([N+](=O)[O-])n1)c1ccc(-n2ccnc2)cc1 (configuration not stated) | > 97
53 | O=[N+]([O-])c1ncn(CC(O)(Cn2cncn2)c2ccc(F)cc2F)n1 (configuration not stated) | 220
54 | O=C(Cn1cnc([N+](=O)[O-])n1)c1ccc(F)cc1F | 206
55 | Cc1nc(-c2cccc(NC(=O)Cn3cnc([N+](=O)[O-])n3)c2)cs1 | 122
56 | CC(O)(Cn1cncn1)c1ccc(-c2ccccc2)cc1 (configuration not stated) | 162
57 | Fc1ccc(C2(Cn3cncn3)Cn3ccnc3O2)c(F)c1 (configuration not stated) | > 49.4
